Data reported in patent US20230139171A1 (SITA Information Networking Computing UK Limited, priority 2019, published 2023).

Tests used:
Format in all cases: cell-based
[1] = biological target: T1, human TLR7 (Homo sapiens, UniProt Q9NYK1); experiment: TLR7 inhibition reporter assay (HEK-Blue cells, SEAP reporter, gardiquimod stimulation); details: HEK-Blue cells overexpressing human TLR7, SEAP reporter, gardiquimod 7.5 μM; read-out: TLR7 IC50
T1 construct: host or cells: HEK-Blue cells
T1 sequence (Q9NYK1 27-1049): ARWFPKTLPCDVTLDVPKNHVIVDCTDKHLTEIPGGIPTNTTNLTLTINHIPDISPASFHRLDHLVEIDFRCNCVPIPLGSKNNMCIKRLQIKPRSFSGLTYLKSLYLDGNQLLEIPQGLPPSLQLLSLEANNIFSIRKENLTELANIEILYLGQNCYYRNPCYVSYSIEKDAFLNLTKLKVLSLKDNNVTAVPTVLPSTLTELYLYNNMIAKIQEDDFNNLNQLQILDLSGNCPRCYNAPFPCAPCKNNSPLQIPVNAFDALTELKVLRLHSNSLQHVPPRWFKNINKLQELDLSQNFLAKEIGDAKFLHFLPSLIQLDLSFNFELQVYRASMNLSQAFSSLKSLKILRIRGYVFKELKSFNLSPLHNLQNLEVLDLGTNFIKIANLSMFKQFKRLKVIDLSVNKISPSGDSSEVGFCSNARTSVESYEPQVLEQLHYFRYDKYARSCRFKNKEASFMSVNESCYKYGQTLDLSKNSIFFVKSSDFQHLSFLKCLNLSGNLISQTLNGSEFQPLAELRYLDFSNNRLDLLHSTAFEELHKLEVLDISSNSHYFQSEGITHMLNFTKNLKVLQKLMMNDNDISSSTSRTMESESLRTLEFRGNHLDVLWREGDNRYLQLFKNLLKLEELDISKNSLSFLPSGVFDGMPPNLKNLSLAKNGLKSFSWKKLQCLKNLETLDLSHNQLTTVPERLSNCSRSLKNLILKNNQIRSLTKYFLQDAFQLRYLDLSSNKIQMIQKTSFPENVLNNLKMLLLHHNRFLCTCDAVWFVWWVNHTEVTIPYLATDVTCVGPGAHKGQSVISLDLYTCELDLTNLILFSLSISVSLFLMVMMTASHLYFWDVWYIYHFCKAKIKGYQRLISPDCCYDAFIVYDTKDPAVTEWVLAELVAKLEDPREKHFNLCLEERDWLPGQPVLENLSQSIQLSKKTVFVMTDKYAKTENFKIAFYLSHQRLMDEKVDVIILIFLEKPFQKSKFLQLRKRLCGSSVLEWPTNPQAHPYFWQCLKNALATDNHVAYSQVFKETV
In short: (§1)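 Dose–response from 0.05 nM to 50 μM was run in HEK-Blue human TLR7, TLR8 and TLR9 reporter cells. After 30 min at room temperature with compound, ligand was added (TLR7 gardiquimod 7.5 μM; TLR8 R848 15.9 μM; TLR9 ODN2006 5 nM) and SEAP measured next day, at 22 h.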

[2] = biological target: T2, human TLR9 (Homo sapiens, UniProt Q9NR96); experiment: TLR9 inhibition reporter assay (HEK-Blue cells, SEAP reporter, ODN2006 stimulation); details: HEK-Blue cells overexpressing human TLR9, SEAP reporter, ODN2006 5 nM
T2 construct: host or cells: HEK-Blue cells
T2 sequence (Q9NR96 26-1032): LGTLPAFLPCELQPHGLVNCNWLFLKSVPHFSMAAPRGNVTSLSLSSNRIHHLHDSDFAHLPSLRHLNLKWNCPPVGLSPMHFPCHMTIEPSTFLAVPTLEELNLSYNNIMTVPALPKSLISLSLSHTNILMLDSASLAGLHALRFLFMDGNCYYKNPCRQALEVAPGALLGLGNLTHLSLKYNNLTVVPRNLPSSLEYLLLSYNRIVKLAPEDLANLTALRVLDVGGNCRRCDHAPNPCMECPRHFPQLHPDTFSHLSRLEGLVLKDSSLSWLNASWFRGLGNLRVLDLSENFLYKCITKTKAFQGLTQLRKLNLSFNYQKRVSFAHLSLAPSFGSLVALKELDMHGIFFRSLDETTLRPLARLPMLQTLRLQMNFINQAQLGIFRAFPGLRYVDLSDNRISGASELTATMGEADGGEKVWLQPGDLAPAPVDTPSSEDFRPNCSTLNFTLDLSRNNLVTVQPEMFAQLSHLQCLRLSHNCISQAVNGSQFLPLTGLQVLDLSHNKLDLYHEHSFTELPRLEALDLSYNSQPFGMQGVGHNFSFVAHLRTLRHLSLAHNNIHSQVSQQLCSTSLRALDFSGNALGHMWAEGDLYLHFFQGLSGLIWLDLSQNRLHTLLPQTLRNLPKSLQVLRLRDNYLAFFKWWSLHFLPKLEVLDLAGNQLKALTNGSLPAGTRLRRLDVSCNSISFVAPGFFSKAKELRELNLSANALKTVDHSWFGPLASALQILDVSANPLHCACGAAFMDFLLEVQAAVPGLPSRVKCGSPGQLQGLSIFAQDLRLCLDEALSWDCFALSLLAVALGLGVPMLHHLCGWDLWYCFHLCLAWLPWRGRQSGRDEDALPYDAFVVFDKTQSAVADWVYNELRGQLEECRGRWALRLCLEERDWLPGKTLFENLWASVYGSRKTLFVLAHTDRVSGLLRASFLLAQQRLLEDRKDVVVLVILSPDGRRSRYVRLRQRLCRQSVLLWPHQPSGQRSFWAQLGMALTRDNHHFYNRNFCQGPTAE
In short: as §1

[3] = biological target: T3, human TLR8 (Homo sapiens, UniProt Q9NR97); experiment: TLR8 inhibition reporter assay (HEK-Blue cells, SEAP reporter, R848 stimulation); details: HEK-Blue cells overexpressing human TLR8, SEAP reporter, R848 15.9 μM; read-out: TLR8 IC50
T3 construct: host or cells: HEK-Blue cells
T3 sequence (Q9NR97 27-1041): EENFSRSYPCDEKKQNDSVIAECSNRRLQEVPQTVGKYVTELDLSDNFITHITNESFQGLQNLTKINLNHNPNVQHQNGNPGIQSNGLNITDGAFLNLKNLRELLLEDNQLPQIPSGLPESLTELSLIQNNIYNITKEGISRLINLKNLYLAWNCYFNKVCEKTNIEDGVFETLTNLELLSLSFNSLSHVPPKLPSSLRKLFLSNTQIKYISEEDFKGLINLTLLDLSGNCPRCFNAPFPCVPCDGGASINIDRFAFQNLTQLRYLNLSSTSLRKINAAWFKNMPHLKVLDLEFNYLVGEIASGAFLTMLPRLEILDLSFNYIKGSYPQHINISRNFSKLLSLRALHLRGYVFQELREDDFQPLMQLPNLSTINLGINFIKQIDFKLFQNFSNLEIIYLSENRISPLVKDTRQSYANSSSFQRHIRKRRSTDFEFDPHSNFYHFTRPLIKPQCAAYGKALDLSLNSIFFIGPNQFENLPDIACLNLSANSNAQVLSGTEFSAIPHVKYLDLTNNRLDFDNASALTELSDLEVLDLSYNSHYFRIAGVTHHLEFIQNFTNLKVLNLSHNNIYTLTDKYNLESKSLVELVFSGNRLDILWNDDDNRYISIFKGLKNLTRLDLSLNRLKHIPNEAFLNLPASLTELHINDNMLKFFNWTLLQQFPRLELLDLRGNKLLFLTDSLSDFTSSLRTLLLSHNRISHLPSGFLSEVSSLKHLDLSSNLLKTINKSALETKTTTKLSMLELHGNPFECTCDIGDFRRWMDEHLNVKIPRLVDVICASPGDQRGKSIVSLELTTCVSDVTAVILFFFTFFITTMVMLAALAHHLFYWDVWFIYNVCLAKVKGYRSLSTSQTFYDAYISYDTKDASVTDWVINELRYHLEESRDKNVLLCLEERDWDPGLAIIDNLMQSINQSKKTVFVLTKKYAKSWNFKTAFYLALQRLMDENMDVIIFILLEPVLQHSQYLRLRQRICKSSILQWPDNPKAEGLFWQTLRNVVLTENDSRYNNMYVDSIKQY
In short: as §1

SMILES | IC50 [1] [nM] | IC50 [2] [nM] | IC50 [3] [nM]
Cc1c(-c2[nH]c3sc(C4CCC(N(C)CC(C)C)CC4)nc3c2C(C)C)cn2ncnc2c1C (single isomer, unassigned) [Example 229, 4-(5-(7,8-dimethyl-[1,2,4]triazolo[1,5-a]pyridin-6-yl)-6-isopropyl-4H-pyrrolo[3,2-d]thiazol-2-yl)-N-isobutyl-N-methylcyclohexan-1-amine] | 7.1 | 4960 | 3.71
Cc1c(-c2[nH]c3sc(C4CCC(NC5CCS(=O)(=O)C5)CC4)nc3c2C(C)C)cn2ncnc2c1C (single isomer, unassigned) [Example 231, 3-((4-(5-(7,8-dimethyl-[1,2,4]triazolo[1,5-a]pyridin-6-yl)-6-isopropyl-4H-pyrrolo[3,2-d]thiazol-2-yl)cyclohexyl)amino)tetrahydrothiophene 1,1-dioxide] | 6.32 | 49500 | 1.19
Cc1c(-c2[nH]c3sc(C4CCC(NC5CCS(=O)(=O)C5)CC4)nc3c2C(C)C)cn2ncnc2c1C (single isomer, unassigned) [Example 232, 3-((4-(5-(7,8-dimethyl-[1,2,4]triazolo[1,5-a]pyridin-6-yl)-6-isopropyl-4H-pyrrolo[3,2-d]thiazol-2-yl)cyclohexyl)amino)tetrahydrothiophene 1,1-dioxide] | 4.19 | > 50000 | 7.87
Cc1c(-c2[nH]c3sc(C4CCC(N5CC6(C5)CS(=O)(=O)C6)CC4)nc3c2C(C)C)cn2ncnc2c1C (single isomer, unassigned) [Example 233, 6-(4-(5-(7,8-dimethyl-[1,2,4]triazolo[1,5-a]pyridin-6-yl)-6-isopropyl-4H-pyrrolo[3,2-d]thiazol-2-yl)cyclohexyl)-2-thia-6-azaspiro[3.3]heptane 2,2-dioxide] | 2.3 | > 50000 | 0.59
Cc1c(-c2[nH]c3sc(C4CCC(N5CC6(C5)CS(=O)(=O)C6)CC4)nc3c2C(C)C)cn2ncnc2c1C (single isomer, unassigned) [Example 234, 6-(4-(5-(7,8-dimethyl-[1,2,4]triazolo[1,5-a]pyridin-6-yl)-6-isopropyl-4H-pyrrolo[3,2-d]thiazol-2-yl)cyclohexyl)-2-thia-6-azaspiro[3.3]heptane 2,2-dioxide] | 15.1 | > 50000 | 59.8
Cc1c(-c2[nH]c3sc(C4CCC(N5CC(O)(C(F)(F)F)C5)CC4)nc3c2C(C)C)cn2ncnc2c1C (single isomer, unassigned) [Example 235, 1-(4-(5-(7,8-dimethyl-[1,2,4]triazolo[1,5-a]pyridin-6-yl)-6-isopropyl-4H-pyrrolo[3,2-d]thiazol-2-yl)cyclohexyl)-3-(trifluoromethyl)azetidin-3-ol] | 1.05 | 16600 | 1.01
Cc1c(-c2[nH]c3sc(C4CCC(N5CC(O)(C(F)(F)F)C5)CC4)nc3c2C(C)C)cn2ncnc2c1C (single isomer, unassigned) [Example 236, 1-(4-(5-(7,8-dimethyl-[1,2,4]triazolo[1,5-a]pyridin-6-yl)-6-isopropyl-4H-pyrrolo[3,2-d]thiazol-2-yl)cyclohexyl)-3-(trifluoromethyl)azetidin-3-ol] | 1.36 | 25400 | 18.7
Cc1c(-c2[nH]c3sc(C4CCC(N5CCC6(CC5)COC6)CC4)nc3c2C(C)C)cn2ncnc2c1C (single isomer, unassigned) [Example 237, 7-(4-(5-(7,8-dimethyl-[1,2,4]triazolo[1,5-a]pyridin-6-yl)-6-isopropyl-4H-pyrrolo[3,2-d]thiazol-2-yl)cyclohexyl)-2-oxa-7-azaspiro[3.5]nonane] | 4.87 | 5490 | 0.29
Cc1c(-c2[nH]c3sc(C4CCC(N5CCC6(CC5)COC6)CC4)nc3c2C(C)C)cn2ncnc2c1C (single isomer, unassigned) [Example 238, 7-(4-(5-(7,8-dimethyl-[1,2,4]triazolo[1,5-a]pyridin-6-yl)-6-isopropyl-4H-pyrrolo[3,2-d]thiazol-2-yl)cyclohexyl)-2-oxa-7-azaspiro[3.5]nonane] | 5.4 | 5370 | 5.96
Cc1c(-c2[nH]c3sc(C4CCC(N5CC6(CCOCC6)C5)CC4)nc3c2C(C)C)cn2ncnc2c1C (single isomer, unassigned) [Example 239, 2-(4-(5-(7,8-dimethyl-[1,2,4]triazolo[1,5-a]pyridin-6-yl)-6-isopropyl-4H-pyrrolo[3,2-d]thiazol-2-yl)cyclohexyl)-7-oxa-2-azaspiro[3.5]nonane] | 1.96 | 9920 | 0.27
Cc1c(-c2[nH]c3sc(C4CCC(N5CC6(CCOCC6)C5)CC4)nc3c2C(C)C)cn2ncnc2c1C (single isomer, unassigned) [Example 240, 2-(4-(5-(7,8-dimethyl-[1,2,4]triazolo[1,5-a]pyridin-6-yl)-6-isopropyl-4H-pyrrolo[3,2-d]thiazol-2-yl)cyclohexyl)-7-oxa-2-azaspiro[3.5]nonane] | 3.72 | 6230 | 2.82
